Numbered stars: 1 amine (or outer) side, 2 acyl side, 3 side chain; on linkers, the order of the positions; unused ones are H or OH. Bridge positions count the residues as written; N and C are the ends. Square brackets hold non-standard residues; d marks the D form. Peptide text beside a SMILES is read from it. * marks the point of attachment. ξ: configuration not given here. X9 = O=C([C@H](Cc1cc(F)c(F)cc1F)N[*:1])[*:2]; Bip = N[C@@H](Cc1ccc(-c2ccccc2)cc1)C(=O)O; Morpholine(3S-CO) = O=C(O)[C@@H]1COCCN1; Pip(4-aza) = O=C(O)[C@@H]1CNCCN1; 4Pal = N[C@@H](Cc1ccncc1)C(=O)O; X1 = O=C(CN1CCN([*:1])CC1)[*:2]; Cha = N[C@@H](CC1CCCCC1)C(=O)O; Cit = NC(=O)NCCC[C@H](N)C(=O)O; Thr(3ξ) = CC(O)[C@H](N)C(=O)O; 3Abz = Nc1cccc(C(=O)O)c1; 4Abz = Nc1ccc(C(=O)O)cc1; Carboxymethyl = O=C(O)C*; Orn = NCCC[C@H](N)C(=O)O; Pra = C#CC[C@H](N)C(=O)O; Aun = NCCCCCCCCCCC(=O)O; Dab = NCC[C@H](N)C(=O)O; Dap = NC[C@H](N)C(=O)O; AEEA = NCCOCCOCC(=O)O
Target: T1, PD-1/PD-L1 interaction (PE-labeled human PD-L1-Ig binding to Jurkat cell line over-expressing human PD-1) (Homo sapiens, UniProt Q15116)
T1 construct: expressed in transfected cells; host or cells: Jurkat
T1 sequence (Q15116 25-288): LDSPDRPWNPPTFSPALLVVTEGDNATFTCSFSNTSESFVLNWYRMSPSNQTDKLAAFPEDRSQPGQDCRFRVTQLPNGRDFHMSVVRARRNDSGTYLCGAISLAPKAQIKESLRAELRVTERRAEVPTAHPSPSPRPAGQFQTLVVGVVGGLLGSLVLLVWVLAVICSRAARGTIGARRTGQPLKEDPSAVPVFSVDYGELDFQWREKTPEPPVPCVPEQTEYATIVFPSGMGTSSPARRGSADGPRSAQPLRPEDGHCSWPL
Test: Jurkat-PD-1 Cell Binding High-Content Screening Assay (CBA)
Format: cell-based
Conditions: Jurkat cell line over-expressing human PD-1; PE-labeled PD-L1-Ig 20 nM final; read-out: Jurkat hPD1-PDL1 IC50
Outline: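 Binding of fluorescent PD-L1-Ig (20 nM final) to Jurkat-PD-1 cells was measured by automated imaging after 1 h, following a 2 h compound pre-treatment at 37° C.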

| SMILES | IC50 |
| --- | --- |
| CC(C)C[C@H]1NC(=O)[C@H](CCCN)NC(=O)[C@H](Cc2ccc(O)cc2)NC(=O)[C@H](Cc2ccc(-c3ccccc3)cc2)NC(=O)[C@H](Cc2ccc(OCC(=O)O)cc2)NC(=O)[C@H](Cc2cc(F)c(F)cc2F)NC(=O)[C@H](CC(=O)O)NC(=O)[C@H](Cc2ccc(OCC(=O)O)cc2)NC(=O)[C@H](CN)NC(=O)CSC[C@@H](C(=O)N[C@@H](CCN)C(=O)NCCOCCOCC(=O)NCCCCCCCCCCC(=O)O)NC(=O)[C@H](CCCN)NC(=O)[C@H](C(C)C)NC(=O)[C@H](CC2CCCCC2)NC(=O)[C@H](CCN)NC1=O [Compound 1224] ({CH2CO}-[Dap]Y(Carboxymethyl)D[X9]Y(Carboxymethyl)[Bip]Y[Orn][dL][Dab][Cha]V[Orn]C[Dab][AEEA][Aun]-OH; thioether N-14) | 141 nM |
| CC(C)C[C@@H]1NC(=O)[C@H](Cc2c[nH]c3ccccc23)NC(=O)[C@H](CC(=O)O)NC(=O)[C@H](Cc2ccncc2)NC(=O)[C@H](Cc2ccc(OCC(=O)O)cc2)NC(=O)CSC[C@@H](C(=O)N2CCN(CC(=O)NCCCCCCCCCCC(=O)O)CC2)NC(=O)[C@H](C(C)O)NC(=O)[C@H](C(C)C)NC(=O)[C@H](CC2CCCCC2)NC(=O)[C@H](CCN)NC(=O)[C@@H](CC(C)C)NC(=O)[C@H](CCCN)NC(=O)[C@H](C(C)C)NC(=O)[C@H](Cc2ccc(-c3ccccc3)cc2)NC1=O (stereo partly drawn) [Compound 1225] ({CH2CO}-Y(Carboxymethyl)[4Pal]DWL[Bip]V[Orn][dL][Dab][Cha]V[Thr(3ξ)]C[X1][Aun]-OH; thioether N-14) | 171 nM |
| CC(C)C[C@@H]1NC(=O)[C@H](Cc2c[nH]c3ccccc23)NC(=O)[C@H](CC(=O)O)NC(=O)[C@H](Cc2ccncc2)NC(=O)[C@H](Cc2ccc(OCC(=O)O)cc2)NC(=O)CSC[C@@H](C(=O)Nc2ccc(C(=O)NCCCCCCCCCCC(=O)O)cc2)NC(=O)[C@H](CCCN)NC(=O)[C@H](C(C)C)NC(=O)[C@H](CC2CCCCC2)NC(=O)[C@H](CCN)NC(=O)[C@@H](CC(C)C)NC(=O)[C@H](CCCN)NC(=O)[C@H](C(C)C)NC(=O)[C@H](Cc2ccc(-c3ccccc3)cc2)NC1=O [Compound 1226] ({CH2CO}-Y(Carboxymethyl)[4Pal]DWL[Bip]V[Orn][dL][Dab][Cha]V[Orn]C[4Abz][Aun]-OH; thioether N-14) | 277 nM |
| CC(C)C[C@@H]1NC(=O)[C@H](Cc2c[nH]c3ccccc23)NC(=O)[C@H](CC(=O)O)NC(=O)[C@H](Cc2ccncc2)NC(=O)[C@H](Cc2ccc(OCC(=O)O)cc2)NC(=O)CSC[C@@H](C(=O)N2CCOC[C@H]2C(=O)NCCCCCCCCCCC(=O)O)NC(=O)[C@H](CCCNC(N)=O)NC(=O)[C@H](C(C)C)NC(=O)[C@H](CC2CCCCC2)NC(=O)[C@H](CCN)NC(=O)[C@@H](CC(C)C)NC(=O)[C@H](CCCN)NC(=O)[C@H](C(C)C)NC(=O)[C@H](Cc2ccc(-c3ccccc3)cc2)NC1=O [Compound 1227] ({CH2CO}-Y(Carboxymethyl)[4Pal]DWL[Bip]V[Orn][dL][Dab][Cha]V[Cit]C[Morpholine(3S-CO)][Aun]-OH; thioether N-14) | 304 nM |
| CC(C)C[C@@H]1NC(=O)[C@H](Cc2c[nH]c3ccccc23)NC(=O)[C@H](CC(=O)O)NC(=O)[C@H](Cc2ccncc2)NC(=O)[C@H](Cc2ccc(OCC(=O)O)cc2)NC(=O)CSC[C@@H](C(=O)Nc2cccc(C(=O)NCCCCCCCCCCC(=O)O)c2)NC(=O)[C@H](CCN)NC(=O)[C@H](C(C)C)NC(=O)[C@H](CC2CCCCC2)NC(=O)[C@H](CCN)NC(=O)[C@@H](CC(C)C)NC(=O)[C@H](CCCN)NC(=O)[C@H](C(C)C)NC(=O)[C@H](Cc2ccc(-c3ccccc3)cc2)NC1=O [Compound 1228] ({CH2CO}-Y(Carboxymethyl)[4Pal]DWL[Bip]V[Orn][dL][Dab][Cha]V[Dab]C[3Abz][Aun]-OH; thioether N-14) | 307 nM |
| CC(C)C[C@@H]1NC(=O)[C@H](Cc2c[nH]c3ccccc23)NC(=O)[C@H](CC(=O)O)NC(=O)[C@H](Cc2ccncc2)NC(=O)[C@H](Cc2ccc(OCC(=O)O)cc2)NC(=O)CSC[C@@H](C(=O)Nc2ccc(C(=O)NCCCCCCCCCCC(=O)O)cc2)NC(=O)[C@H](CCN)NC(=O)[C@H](C(C)C)NC(=O)[C@H](CC2CCCCC2)NC(=O)[C@H](CCN)NC(=O)[C@@H](CC(C)C)NC(=O)[C@H](CCCN)NC(=O)[C@H](C(C)C)NC(=O)[C@H](Cc2ccc(-c3ccccc3)cc2)NC1=O [Compound 1229] ({CH2CO}-Y(Carboxymethyl)[4Pal]DWL[Bip]V[Orn][dL][Dab][Cha]V[Dab]C[4Abz][Aun]-OH; thioether N-14) | 518 nM |

These reach a lower IC50. Values come first.

| IC50 | SMILES |
| --- | --- |
| 135 nM | CC(C)C[C@@H]1NC(=O)[C@H](Cc2c[nH]c3ccccc23)NC(=O)[C@H](CC(=O)O)NC(=O)[C@H](Cc2ccncc2)NC(=O)[C@H](Cc2ccc(OCC(=O)O)cc2)NC(=O)CSC[C@@H](C(=O)N2CCNC[C@H]2C(=O)NCCCCCCCCCCC(=O)O)NC(=O)[C@H](C(C)O)NC(=O)[C@H](C(C)C)NC(=O)[C@H](CC2CCCCC2)NC(=O)[C@H](CCN)NC(=O)[C@@H](CC(C)C)NC(=O)[C@H](CCCN)NC(=O)[C@H](C(C)C)NC(=O)[C@H](Cc2ccc(-c3ccccc3)cc2)NC1=O (stereo partly drawn) [Compound 1223] ({CH2CO}-Y(Carboxymethyl)[4Pal]DWL[Bip]V[Orn][dL][Dab][Cha]V[Thr(3ξ)]C[Pip(4-aza)][Aun]-OH; thioether N-14) |
| 33.2 nM | C#CC[C@H](NC(=O)COCCOCCNC(=O)[C@@H]1CSCC(=O)N[C@@H](Cc2ccncc2)C(=O)N[C@@H](Cc2ccc(OCC(=O)O)cc2)C(=O)N[C@@H](CC(=O)O)C(=O)N[C@@H](Cc2c[nH]c3ccccc23)C(=O)N[C@@H](C(C)C)C(=O)N[C@@H](Cc2ccc(-c3ccccc3)cc2)C(=O)N[C@@H]([C@@H](C)CC)C(=O)N[C@@H](CCCN)C(=O)N[C@H](CC(C)C)C(=O)N[C@@H](CCN)C(=O)N[C@@H](CC(C)C)C(=O)N[C@@H](C(C)C)C(=O)N[C@@H]([C@@H](C)O)C(=O)N1)C(=O)N[C@@H](CCN)C(=O)NCCCCCCCCCCC(=O)O [Compound 1212] ({CH2CO}-[4Pal]Y(Carboxymethyl)DWV[Bip]I[Orn][dL][Dab]LVTC[AEEA][Pra][Dab][Aun]-OH; thioether N-14) |
| 32.8 nM | C#CC[C@H](NC(=O)COCCOCCNC(=O)[C@@H]1CSCC(=O)N[C@@H](Cc2ccncc2)C(=O)N[C@@H](Cc2ccc(OCC(=O)O)cc2)C(=O)N[C@@H](CC(=O)O)C(=O)N[C@@H](Cc2c[nH]c3ccccc23)C(=O)N[C@@H](C(C)C)C(=O)N[C@@H](Cc2ccc(-c3ccccc3)cc2)C(=O)N[C@@H]([C@@H](C)CC)C(=O)N[C@@H](CCCN)C(=O)N[C@H](CC(C)C)C(=O)N[C@@H](CCN)C(=O)N[C@@H](CC(C)C)C(=O)N[C@@H](C(C)C)C(=O)N[C@@H]([C@@H](C)O)C(=O)N1)C(=O)N[C@@H](CCCN)C(=O)NCCCCCCCCCCC(=O)O [Compound 1213] ({CH2CO}-[4Pal]Y(Carboxymethyl)DWV[Bip]I[Orn][dL][Dab]LVTC[AEEA][Pra][Orn][Aun]-OH; thioether N-14) |
| 16.5 nM | C#CC[C@H](NC(=O)COCCOCCNC(=O)[C@@H]1CSCC(=O)N[C@@H](Cc2ccncc2)C(=O)N[C@@H](Cc2ccc(OCC(=O)O)cc2)C(=O)N[C@@H](CC(=O)O)C(=O)N[C@@H](Cc2c[nH]c3ccccc23)C(=O)N[C@@H](C(C)C)C(=O)N[C@@H](Cc2ccc(-c3ccccc3)cc2)C(=O)N[C@@H]([C@@H](C)CC)C(=O)N[C@@H](CCCN)C(=O)N[C@H](CC(C)C)C(=O)N[C@@H](CCN)C(=O)N[C@@H](CC(C)C)C(=O)N[C@@H](C(C)C)C(=O)N[C@@H]([C@@H](C)O)C(=O)N1)C(=O)N[C@@H](Cc1cnc[nH]1)C(=O)NCCCCCCCCCCC(=O)O [Compound 1216] ({CH2CO}-[4Pal]Y(Carboxymethyl)DWV[Bip]I[Orn][dL][Dab]LVTC[AEEA][Pra]H[Aun]-OH; thioether N-14) |
| 15.6 nM | C#CC[C@H](NC(=O)COCCOCCNC(=O)[C@@H]1CSCC(=O)N[C@@H](Cc2ccncc2)C(=O)N[C@@H](Cc2ccc(OCC(=O)O)cc2)C(=O)N[C@@H](CC(=O)O)C(=O)N[C@@H](Cc2c[nH]c3ccccc23)C(=O)N[C@@H](C(C)C)C(=O)N[C@@H](Cc2ccc(-c3ccccc3)cc2)C(=O)N[C@@H]([C@@H](C)CC)C(=O)N[C@@H](CCCN)C(=O)N[C@H](CC(C)C)C(=O)N[C@@H](CCN)C(=O)N[C@@H](CC(C)C)C(=O)N[C@@H](C(C)C)C(=O)N[C@@H]([C@@H](C)O)C(=O)N1)C(=O)N[C@@H](CN)C(=O)NCCCCCCCCCCC(=O)O [Compound 1211] ({CH2CO}-[4Pal]Y(Carboxymethyl)DWV[Bip]I[Orn][dL][Dab]LVTC[AEEA][Pra][Dap][Aun]-OH; thioether N-14) |
| 13.8 nM | C#CC[C@H](NC(=O)COCCOCCNC(=O)[C@@H]1CSCC(=O)N[C@@H](Cc2ccncc2)C(=O)N[C@@H](Cc2ccc(OCC(=O)O)cc2)C(=O)N[C@@H](CC(=O)O)C(=O)N[C@@H](Cc2c[nH]c3ccccc23)C(=O)N[C@@H](C(C)C)C(=O)N[C@@H](Cc2ccc(-c3ccccc3)cc2)C(=O)N[C@@H]([C@@H](C)CC)C(=O)N[C@@H](CCCN)C(=O)N[C@H](CC(C)C)C(=O)N[C@@H](CCN)C(=O)N[C@@H](CC(C)C)C(=O)N[C@@H](C(C)C)C(=O)N[C@@H]([C@@H](C)O)C(=O)N1)C(=O)N[C@@H](CCCNC(=N)N)C(=O)NCCCCCCCCCCC(=O)O [Compound 1215] ({CH2CO}-[4Pal]Y(Carboxymethyl)DWV[Bip]I[Orn][dL][Dab]LVTC[AEEA][Pra]R[Aun]-OH; thioether N-14) |
| 13.7 nM | C#CC[C@H](NC(=O)COCCOCCNC(=O)[C@@H]1CSCC(=O)N[C@@H](Cc2ccncc2)C(=O)N[C@@H](Cc2ccc(OCC(=O)O)cc2)C(=O)N[C@@H](CC(=O)O)C(=O)N[C@@H](Cc2c[nH]c3ccccc23)C(=O)N[C@@H](C(C)C)C(=O)N[C@@H](Cc2ccc(-c3ccccc3)cc2)C(=O)N[C@@H]([C@@H](C)CC)C(=O)N[C@@H](CCCN)C(=O)N[C@H](CC(C)C)C(=O)N[C@@H](CCN)C(=O)N[C@@H](CC(C)C)C(=O)N[C@@H](C(C)C)C(=O)N[C@@H]([C@@H](C)O)C(=O)N1)C(=O)N[C@@H](CCCCN)C(=O)NCCCCCCCCCCC(=O)O [Compound 1214] ({CH2CO}-[4Pal]Y(Carboxymethyl)DWV[Bip]I[Orn][dL][Dab]LVTC[AEEA][Pra]K[Aun]-OH; thioether N-14) |

Reference: patent US20260022142A1, “MACROCYCLIC IMMUNOMODULATORS” (Bristol-Myers Squibb Company, priority 2022, published 2026)
